Experimental data published in patent US20200024246A1, “POGOSTONE DERIVATIVES AND METHODS OF USING THE SAME” (Hamyard Associates LLC, priority 2018, published 2020).
Converted amounts (≈) assume the structure as drawn. “Also recorded” adds a separate entry of the source. Where two headings read alike, the source gives them in different places.

How the values were obtained:
adult house flies [1] = experiment: House fly feeding assay (choice assay, FIG. 5); format: in vivo; conditions: 15% w/w in fly food, total mortality at 5 days
Excerpt: Formulas 13, 17, 24, 26, 10, 27, and 29 and control (acetone and boric acid) were incorporated into 2 g of house fly food (1:1 dry milk and sucrose) at rate of 15%. Specifically, approximately 20-30 adult house flies ( ) were introduced into aquaria with a French square filled with de-ionized water. Cotton dental wicks were used to draw water up and present it to flies at the top of the French square. Compounds were introduced at a concentration of (15% w/w food) into 1:1 mixtures of evaporated milk powder and sucrose. MUSCALURE™, a potent house fly attractant/pheromone used in various house fly bait products, was also added to this mixture of bait and food at a concentration of 0.5% w/w food. Two grams of food mixed with compound was provided to house flies in each assay. Another 2 g of just fly food (no compound) was provided at the other end of the assay chamber to serve as untreated source of food. This was done to assess the ability of flies to feed on the treated food source (palatability). If acetone was used as the carrier throughout the experiment, the food was carefully stirred repeatedly to ensure evaporation so that no more acetone was present in the food. Total mortality was assessed at 5 days after introducing house flies into individual mason jars with food treated with different compounds.

adult, female mosquitoes = experiment: Topical application on adult female mosquitoes (24-h mortality, 1-h knockdown); format: in vivo, mosquito; conditions: for ED50: read-out: KD50 (ug/g mosquito); for LD50: read-out: LD50 (ug/g mosquito); for insecticidal properties compared with natural pogostone, natural pyrethrins or terpenoids: words, refers to Table 1
[2] = test system: 3-4 instar Aedes aegypti larvae; experiment: Mosquito larvicide bioassay; format: in vivo; conditions: for LC50: Aedes aegypti; for larvicidal properties compared with natural pogostone or rotenone: words
Method: Mosquito larvicide bioassays were performed by introducing various concentrations of test compounds (pyrone derivatives and rotenone) into acetone at various concentrations. 200 uL of these solutions were added to individual cups containing 10, 3-4 instar Aedes aegypti larvae and 25 mL of DI water. 2 mg of Tetramin™ was provided to each cup as a food source. […] Ataxia was used as the indicator of larval mortality. At least 5 concentrations were used which caused between 10 and 90% mortality. LC50 values were calculated using a PROC PROBIT model in SAS 9.4.

[3] = test system: adult female Aedes aegypti; experiment: Topical combination of Formula 13 with synthetic insecticides (FIGS. 6-9); format: in vivo; conditions: for 24-hr percentage mortality: 0.2 μL acetone, Formula 13 500 μg/mL, dibrom 10 μg/mL, thiamethoxam 100 μg/mL, permethrin 2.5 μg/mL, alone or in combination
Method: A low-dose concentration of Formula 13 (500 μg/mL) was applied in combination with chlorfenapyr (75 μg/mL), dibrom (10 μg/mL), thiamethoxam (100 μg/mL), and permethrin (2.5 μg/mL) to the pronotum of adult female Aedes aegypti in 0.2 μL of acetone. These concentrations were chosen as they produced little-to-no mortality at 24 hours after application. Knockdown (immobilization) was recorded at 1 hour after application and mortality was recorded at 24, 48, and 72 hours after initial application. These applications were run in parallel to a topical application of a combined mixture of 500 μg/mL Formula 13 and 75 μg/mL of chlorfenpayr to the pronotum of adult female mosquitoes. For this experiment, total of 25 mosquitoes were treated within each replicate, with a minimum of 3 replicates utilized for each treatment. Synergism was defined as the higher percentage mortality in the insecticidal combination of both Formula 13 and chlorfenapyr compared to each individual component applied by itself.

house flies = experiment: Topical application on house flies; conditions: for LD50 (ug/g fly): House Fly Toxicity, topical
adult house flies [4] = experiment: Topical application of pogostone derivatives with PBO or plant essential oil on house flies; format: in vivo, house fly; conditions: for LD50 (μg/g) / LD50: house flies, topical, derivative alone or in combination with PBO
Method: Combinations of select pogostone derivatives with select concentrations of PBO or plant essential oils was performed. […] Synergists were applied as a subsequent application directly after the application of pogostone derivatives. Concentrations of synergists (plant oils or PBO) were chosen that produced no mortality at 24 hours when applied alone.
To assess the ability of PBO to increase the toxicity of a wide variety of pogostone derivatives, PBO and the pogostone derivatives were applied in combination to the pronotum of house flies.
Finally, the potential of plant essential oils to synergize the effect of Formula 30 was assessed.

adult female mosquitoes = experiment: whole plant or invertebrate; conditions: for LD50: read-out: 24-hour Mortality LD50 (μg/g mosquito)
Method: The first group of DHAA-based derivatives that were tested included Formula A2, Formula B3, Formula C3, and Formula D3. A solution of 0.5% or 1.5% of each of these compounds was applied to the mosquitoes, as described above. […] Acetone was used as a control.

adult flies = experiment: Contact toxicity on treated filter paper; format: in vivo; conditions: filter paper treated with 1 mL in acetone; 24 hours
Method: Filter papers were treated with 1 mL of the disclosed compounds in acetone at varying concentrations, and the filter papers were placed in a dish. Ten adult flies were added to each dish and a sugar pad was added to each dish to ensure that any mortality could be attributed to the compound instead of starvation. Mortality was assessed at 24 hours.

[5] = test system: Pyrethroid-resistant strain of Aedes aegypti (Puerto Rican strain); experiment: Toxicity to insecticide-resistant mosquitoes (FIG. 1); conditions: dose response curves FIG. 1
[6] = Mosquito Knockdown Properties (1 hour), topical application
[7] = Mosquito Toxicity (24 hours), topical application to pronotum

CCCCCCCCCCCC(=O)c1c(O)c2ccccc2oc1=O [Formula 26]
mortality compared with boric acid (adult house flies [1]): performed similarly to boric acid | ED50 (adult, female mosquitoes; topical, 1 h): > 1500 mg/kg | LD50 (adult, female mosquitoes; topical, 24 h): > 1500 mg/kg

C=C(C)[C@H]1Cc2c(ccc3c2O[C@@H]2COc4cc(OC)c(OC)cc4[C@@H]2C3=O)O1 [Rotenone, reference compound]
LC50 ([2]; 24 h): 0.35 µg/mL (≈ 0.887 µM)

CC1(C)C(C=C(Cl)Cl)C1C(=O)OCc1cccc(Oc2ccccc2)c1 (racemic) [Permethrin, 3-phenoxybenzyl (1RS)-cis,trans-3-(2,2-dichlorovinyl)-2,2-dimethylcyclopropanecarboxylate]
24-hr percentage mortality [3]: 28%

O=C(c1c(O)c2ccccc2oc1=O)C(Cl)Cl [Formula 31]
ED50 (adult, female mosquitoes; [6]): > 1500 mg/kg | LD50 (adult, female mosquitoes; [7]): > 1500 mg/kg | LD50 (ug/g fly) (house flies): >6,000 ug/g fly | LD50 (μg/g) (adult house flies [4]): >6,000 μg/g

CC(C)C(=O)c1c(O)c2ccccc2oc1=O [Formula 19]
ED50 (adult, female mosquitoes; topical, 1 h): 384 mg/kg | LD50 (adult, female mosquitoes; topical, 24 h): 24.7 mg/kg | insecticidal properties compared with natural pogostone, natural pyrethrins or terpenoids (adult, female mosquitoes): possessed better insecticidal properties at least as well as natural pyrethrins | LD50 (ug/g fly) (house flies): 1495 ug/g fly | 1-hour Knockdown EC50 (μg/g mosquito) (adult female mosquitoes; topical): 384.5 μg/g mosquito | LD50 (adult female mosquitoes; topical, 24 h): 25 mg/kg | LD50 (adult house flies [4]): 1495 µg/g

CN1COCN(Cc2cnc(Cl)s2)C1=N[N+](=O)[O-] [Thiamethoxam, 3-((2-chloro-5-thiazolyl)methyl)-5-methyl-4-nitroiminotetrahydro-1,3,5-oxadiazine]
24-hr percentage mortality [3]: 25.6%

C=C(C)C(O)CC(=O)c1c(O)cc(C)oc1=O (stereo not shown) [Formula C19]
percent mortality, 0.10% Concentration (adult flies): 0% | percent mortality, 0.25% Concentration (adult flies): 0% | percent mortality, 0.50% Concentration (adult flies): 0% | pest or weed control at 0.5 % (adult female mosquitoes; Culicidae, topical, 1 h, read-out: Knockdown at 0.5%): 83% | pest or weed control at 1.5 % (adult female mosquitoes; Culicidae, topical, 1 h, read-out: Knockdown at 1.5%): 83% | mortality at 0.5 % (adult female mosquitoes; Culicidae, topical, 24 h, read-out: Mortality at 0.5%): 83% | mortality at 1.5 % (adult female mosquitoes; Culicidae, topical, 24 h, read-out: Mortality at 1.5%): 77% | ranking in knockdown and mortality screenings (adult female mosquitoes; words): appear to be the most potent insecticidal compounds

CCOC(=O)/C(C(C)=O)=C(/O)c1ccccc1 [Formula 28]
LC50 ([2]; 24 h): 9.16 µg/mL | larvicidal properties compared with natural pogostone or rotenone [2]: possessed better larvicidal properties than natural pogostone | ED50 (adult, female mosquitoes; topical, 1 h): > 1500 mg/kg | LD50 (adult, female mosquitoes; topical, 24 h): > 1500 mg/kg

CC(C)C(=O)c1c(O)c2cc(F)ccc2oc1=O [Formula 30]
ED50 (adult, female mosquitoes; [6]): > 1500 mg/kg | LD50 (adult, female mosquitoes; [7]): 45.6 mg/kg | insecticidal properties compared with natural pogostone, natural pyrethrins or terpenoids (adult, female mosquitoes): possessed better insecticidal properties than natural pogostone | LD50 (ug/g fly) (house flies): 645 ug/g fly | toxicity to house flies (house flies; words): extremely effective at killing house flies | toxicity of Formula 30 in combination with cedarwood (Texas type) oil (CWT) (adult house flies [4]; 1% CWT, dose-response curves FIG. 11): significant increase in toxicity; also recorded: shifting the dose-response curve to the left | toxicity of Formula 30 in combination with PBO (adult house flies [4]; 1% PBO, dose-response curves FIG. 11): significant increase in toxicity; also recorded: shifting the dose-response curve to the left | LD50 (adult house flies [4]): 645 µg/g

O=C(c1c(O)c2ccccc2oc1=O)C1CC1 [Formula 29]
mortality compared with boric acid (adult house flies [1]): performed better than boric acid | ED50 (adult, female mosquitoes; [6]): 613 mg/kg | LD50 (adult, female mosquitoes; [7]): 47.7 mg/kg | insecticidal properties compared with natural pogostone, natural pyrethrins or terpenoids (adult, female mosquitoes): possessed better insecticidal properties than natural pogostone | LD50 (ug/g fly) (house flies): 1761 ug/g fly | LD50 (adult house flies [4]): 1761 µg/g

O=C(CCc1ccccc1)c1c(O)c2ccccc2oc1=O [Formula 24]
mortality compared with boric acid (adult house flies [1]): performed similarly to boric acid | ED50 (adult, female mosquitoes; topical, 1 h): > 1500 mg/kg | LD50 (adult, female mosquitoes; topical, 24 h): > 1500 mg/kg

Cc1cc(O)c(C(=O)/C=C/C(C)C)c(=O)o1 [Formula 10]
mortality compared with boric acid (adult house flies [1]): performed better than boric acid | ED50 (adult, female mosquitoes; [6]): > 1500 mg/kg | LD50 (adult, female mosquitoes; [7]): > 1500 mg/kg

CCCC(=O)c1c(O)c2ccccc2oc1=O [Formula 14]
LC50 ([2]; larval mortality at 24 hours, in 25 mL DI water, read-out: LC50): 0.9 µg/mL | larvicidal properties compared with natural pogostone or rotenone [2]: possessed better larvicidal properties than natural pogostone; also recorded: possessed better larvicidal properties than rotenone; also recorded: performed as well as the rotenone | ED50 (adult, female mosquitoes; topical, 1 h): > 1500 mg/kg | LD50 (adult, female mosquitoes; topical, 24 h): 139 mg/kg | insecticidal properties compared with natural pogostone, natural pyrethrins or terpenoids (adult, female mosquitoes): possessed better insecticidal properties than natural pogostone | LD50 (ug/g fly) (house flies): >6,000 ug/g fly | insecticidal capacity compared with natural pyrethrins [5]: outperformed natural pyrethrins | 1-hour Knockdown EC50 (μg/g mosquito) (adult female mosquitoes; topical): >1500 μg/g mosquito | LD50 (adult female mosquitoes; topical, 24 h): 139 mg/kg | LD50 (μg/g) (adult house flies [4]): >6,000 μg/g

COP(=O)(OC)OC(Br)C(Cl)(Cl)Br (stereo not shown) [Dibrom]
24-hr percentage mortality [3]: 11%

CCOCn1c(-c2ccc(Cl)cc2)c(C#N)c(Br)c1C(F)(F)F [chlorfenapyr, 4-bromo-2-(4-chlorophenyl)-1-ethoxymethyl-5-trifluoromethylpyrrol-3-carbonitrile]
percentage mortality at 24 hour ([3]; chlorfenapyr 75 ug/mL, Formula 13 500 ug/mL, alone or combined, words): very low mortality
